Series [1] deals with Ehrlich ascites tumour, ELD hyperdiploid. As to the kind of experiment: Ehrlich ascites tumour, ELD hyperdiploid (46 chromosomes), growth inhibition in mice. The format is in vivo, SPF NMRI mice. The note with it: one i.p. injection, result in words. From the text:
(§1) The experimental design and the interpretation of the results are in accordance with the standards set by the CCNSC (Cancer Chemotherpy Reports, January 1959 and December 1962).
Ehrlich ascites tumour, ELD hyperdiploid
Experimental animals: SPF NMRI mice.
Tumour implant: 2 × 10^6 tumour cells i.p.
(§2) Therapy: One injection i.p. on the day following implanta-
(§3) Termination: The animals are killed on the 8th day.
Evaluation: Weight of tumours of test animals compared with
those of control animals.

A short description of series [2]: Walker carcinosarcoma 256 tumour growth inhibition in rats. The format is in vivo, Sprague-Dawley rats. More on the design: ED50: unit: mg/kg. The note with it: rat, in vivo, po, daily p.o. for 5 days.
Source text: (§4) LD50 is the dose that causes a 50 percent lethality of the animals, and ED50 is the dose that causes a 50 percent reduction of tumour size.
as §1
(§5) Walker carcinosarcoma 256.
(§6) Experimental animals: Sprague-Dawley rats.
(§7) Tumour implant: Tumour pieces with 2-4 mm diameter, sub-
(§8) Therapy: Daily p.o. administration for 5 days starting on
(§9) the day following implantation.
(§10) Termination: The animals are killed on the 9th day.
(§11) Evaluation: Weights of tumours of test animals are compared
(§12) with those of control animals.

The subject of series [3] is Walker carcinosarcoma 256. Described as above. The following applies: daily p.o. for 5 days; for antitumour activity: result in words. The format is in vivo, Sprague-Dawley rats. Set-up: ED50: unit: mg/kg.
Source text: as §4, §1, §5, §6, §7, §8, §9, §10, §11, §12

Series [4] in a line: Hepatome AH 130 tumour growth inhibition in rats. The format is in vivo, Sprague-Dawley rats. Set-up: ED50: unit not given here. The following applies: rat, in vivo, ip, one i.p. injection; for LD50: dose causing 50 percent lethality, column head not given; for selectivity ratio: read-out: T.I. (LD50/ED50).
Source text: as §4, §1, §6
(§13) Tumour implant: 5 × 10^6 tumour cells i.p.
as §2, §3, §11, §12

Series [5] relates to Hepatome AH 130. As to the kind of experiment: Hepatome AH 130 tumour growth inhibition in rats. It counts as in vivo, Sprague-Dawley rats. More on the design: ED50: unit not given here. The following applies: one i.p. injection; for ED50: dose causing 50 percent reduction of tumour size, killed 8th day.
Source text: as §4, §1, §6, §13, §2, §3, §11, §12

The target in series [6] is T1, rabbit uterus cytosol progesterone receptor (Oryctolagus cuniculus, UniProt P06186).
T1 construct: One ml portions of the supernatant (rabbit uterus cytosol) were pipetted into small centrifuge tubes of glass; from tissue; host or cells: uterus cytosol (105,000×g supernatant) of female rabbits pretreated with polyestradiol phosphate
T1 sequence (P06186 1-930): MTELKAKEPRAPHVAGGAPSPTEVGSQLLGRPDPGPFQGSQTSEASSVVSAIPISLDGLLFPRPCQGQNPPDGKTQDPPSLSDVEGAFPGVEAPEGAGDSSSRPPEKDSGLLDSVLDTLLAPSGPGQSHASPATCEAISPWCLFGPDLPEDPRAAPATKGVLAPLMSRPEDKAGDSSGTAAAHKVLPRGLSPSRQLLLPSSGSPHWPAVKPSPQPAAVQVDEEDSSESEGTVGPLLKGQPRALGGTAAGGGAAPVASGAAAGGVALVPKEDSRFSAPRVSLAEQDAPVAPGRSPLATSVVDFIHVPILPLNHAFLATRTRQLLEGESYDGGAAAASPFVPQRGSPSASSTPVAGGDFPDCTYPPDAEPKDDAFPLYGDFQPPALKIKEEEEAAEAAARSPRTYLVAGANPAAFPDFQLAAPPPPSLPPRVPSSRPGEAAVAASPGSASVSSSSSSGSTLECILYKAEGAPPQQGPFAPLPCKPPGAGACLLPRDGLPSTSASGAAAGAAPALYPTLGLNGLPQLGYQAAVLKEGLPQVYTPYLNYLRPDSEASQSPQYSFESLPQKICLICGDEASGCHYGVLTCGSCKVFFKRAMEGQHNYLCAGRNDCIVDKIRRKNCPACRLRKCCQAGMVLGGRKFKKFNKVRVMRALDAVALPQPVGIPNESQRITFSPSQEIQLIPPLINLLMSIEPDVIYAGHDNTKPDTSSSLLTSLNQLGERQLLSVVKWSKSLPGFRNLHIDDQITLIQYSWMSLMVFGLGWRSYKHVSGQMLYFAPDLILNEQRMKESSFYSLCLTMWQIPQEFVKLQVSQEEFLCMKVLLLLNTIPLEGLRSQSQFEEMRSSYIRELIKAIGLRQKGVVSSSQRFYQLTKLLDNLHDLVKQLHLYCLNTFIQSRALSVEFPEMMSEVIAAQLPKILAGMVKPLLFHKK
As to the kind of experiment: Relative affinity to rabbit uterus cytosol progesterone receptor (3H-progesterone competition). It counts as binding. The following applies: compared to progesterone; 50% competition with 3H-progesterone; 16-18 hours at 4° C. As for the experimental part:
This example illustrates the compound's relative affinity to rabbit uterus cytosol progesterone receptor compared with progesterone. The method used for this purpose is a modification of methods already described by Kontula, K. et al. (Acta Endocrinol. 78 (1975) 574) and Terenius, L. (Steroids 23 (1974) 909) among others.
Female rabbits (3-4 pounds) from Knut Larsen, Uddevalla, Sweden, were injected i.m. with 1 mg Estradurin (polyestradiol phosphate, 1 mg/ml saline, AB Leo, Sweden). After one week, the animals were killed and the uteri were immediately removed, chilled and cut free from connective tissues. All the following operations were performed at 0°-4° C. The uteri were cut into small pieces and washed several times with 3 vol. of buffer at pH 7.4 containing 50 MM TRIS-HCl, 1.5 mM EDTA, 3 mM NaN3, 2 mM dithiothreitol, and 25% glycerol (by vol.). The tissue was homogenized in the same buffer (3 vol.) with four 15-s bursts at rheostat setting 36-37 of an Ultra Turrax (Janke and Kunkel KG, Staufen, The Federal Republic of Germany). The homogenate was centifuged in a Sorvall GLC-2 centrifuge for 15 min at 600×g. The supernatanate was recentrifuged at 105,000×g for 60 min in a Beckman ultracentrifuge model LB-65-B with rotor SW 56.
One ml portions of the supernatant (rabbit uterus cytosol) were pipetted into small centrifuge tubes of glass and were kept at -70° C. until used. The protein content was determined by the method of Lowry (J. Biol. Chem. 193 (1951) 265).
10.0 mg of each compound was dissolved in 10.0 ml 99.5% ethanol. 100 μl of this standard solution was diluted to 5.0 ml ethanol/glycerol 1:1 (v/v). The ethanol was evaporated by blowing air at 40° C. on the solution. The volume was then adjusted to 5.0 ml by adding buffer without glycerol.
The compounds were diluted with glycerol/buffer 1:1 to final concentrations between 10^-8 -10^-5 M in total 300 μl incubation media. 100 μl of each compound and of each dilution were incubated in small centrifuge tubes (2 ml) together with 100 μl (10 pg) ^3 H-progesterone (1,2,6,7-3H-progesterone, 47.8 Ci/mMol, The Radiochemical Centre, Amersham, England) and 100 μl cytosol adjusted with buffer to a final concentration of about […]. The incubations were carried out for 16-18 hours at 4° C.
The separation of bound from free radioactivity was carried out at 0° C. using the dextran coated charcoal technique (DCC). To each incubation tube was added 0.5 ml DCC-suspension (0.05% dextran-70, Pharmacia, Uppsala, Sweden and 0.5% Norit A, Sigma, Saint Louis, Missouri, U.S.A.) The tubes were agitated 2-3 times during 10 minutes whereupon they were centrifuged at 100×g for five minutes. The supernatantes were decanted directly into Scintillation vials (polyethene, Packard) containing 10 ml InstaGel (Packard). The radioactivity was counted in a Philip's liquid scintillation spectrometer Model PW 4510/00 with external standard and automatic quenching correction.
To incubation tubes were added 100 μl cytosol, 100 μl ^3 H-progesterone (10 pg) and 100 μl of different dilutions of non-radioactive progesterone in glycerol/buffer 1:1 ranging from 0-10^4 pg/100 μl. The tubes were incubated parallel with the compounds described above. The radioactivity was calculated by substracting the counted radioactivity in the incubation tubes with the radioactivity counted in incubations tubes in which the cytosol was replaced with buffer (100 μl).
The concentration of non-radioactive progesterone [P]i which competes for 50% of bound radioactive progesterone was calculated from the standard curve constructed [B] i/[B] o=0.5 where [B]i is the bound radioactivity at different concentrations of non-radioactive progesterone and [B]o is the bound radioactivity at progesterone concentration zero.
In the same manner, curves were constructed for each compound X and the concentration for each compound which competes for 50% with bound ^3 H-progesterone ([X]50) was calculated. […]

These results are taken from US4177269A, “Novel 17-esters of 17α-hydroxy gestogens, compositions containing such compounds, processes for their preparation and methods of treatment therewith” (Aktiebolaget Leo, priority 1976, dated 1979).

SMILES strings stand for the structures. A value given as a limit tells only on which side of the number the result lay.

In general, LD50 refers to the dose at which mortality reaches 50%.

For the compound `CC(=O)[C@@]1(OC(=O)CCCOC(=O)Cc2ccc(N(CCCl)CCCl)cc2)CC[C@H]2[C@@H]3CCC4=CC(=O)CC[C@]4(C)[C@H]3CC[C@@]21C` [3:4, 17α-/4-(4-(N,N-bis(2-chloroethyl)amino)phenylacetoxyy)butanoyloxy/pregn-4-ene-3,20-dione], the antitumour activity result in series [1] is “exhibit antitumour activity”. Also, the figures for the LD50 in series [2] (dose causing 50 percent lethality) and in series [4] were 80 mg/kg and 50 mg/kg, respectively. The selectivity ratio was 20 in series [2] (read-out: T.I. (LD50/ED50)) and 25 in series [4]. For the same compound, the ED50 came to 4 in series [3] (dose causing 50 percent reduction of tumour size, killed 9th day) and 2 in series [5].
On to `CC(=O)[C@@]1(OC(=O)COC(=O)CSc2ccc(N(CCCl)CCCl)cc2)CC[C@H]2[C@@H]3CCC4=CC(=O)CC[C@]4(C)[C@H]3CC[C@@]21C` [3:5, 17α-/4-(N,N-bis(2-chloroethyl)amino)phenylthioacetoxyacetoxy/pregn-4-ene-3,20-dione], for which the antitumour activity entry in series [1] is on record as “exhibit antitumour activity”. The antitumour activity entry in series [3] is recorded as “exhibit antitumour activity”. In series [4], the LD50 is over 250 mg/kg and the selectivity ratio is over 5. The ED50 in series [5] is reported as 50.
For `CC(=O)[C@@]1(OC(=O)COC(=O)c2cccc(N(CCCl)CCCl)c2)CC[C@H]2[C@@H]3CCC4=CC(=O)CC[C@]4(C)[C@H]3CC[C@@]21C` [3:6, 17α-/3-(N,N-bis(2-chloroethyl)amino)benzoyloxyacetoxy/pregn-4-ene-3,20-dione], the antitumour activity entry in series [1], in series [3] and in series [5] (result in words) was “exhibit antitumour activity” each time.
Consider `CC(=O)[C@@]1(OC(=O)COC(=O)[C@@H](N)Cc2ccc(N(CCCl)CCCl)cc2)CC[C@H]2[C@@H]3CCC4=CC(=O)CC[C@]4(C)[C@H]3CC[C@@]21C` [3:12, 17-[(2S)-2-amino-3-(4-(N,N-bis(2-chloroethyl)amino)phenyl)propanoyloxyacetoxy]pregn-4-ene-3,20-dione], for which the antitumour activity entry in series [1] and in series [3] was “exhibit antitumour activity” in each case.
`CC(=O)N[C@@H](Cc1ccc(N(CCCl)CCCl)cc1)C(=O)OCC(=O)O[C@]1(C(C)=O)CC[C@H]2[C@@H]3CCC4=CC(=O)CC[C@]4(C)[C@H]3CC[C@@]21C` [3:14, 17-[(2S)-2-acetamido-3-(4-(N,N-bis(2-chloroethyl)amino)phenyl)propanoyloxyacetoxy]pregn-4-ene-3,20-dione]: the antitumour activity result in series [1] and in series [3] was “exhibit antitumour activity” each time.
In the case of `CC(=O)[C@@]1(OC(=O)COC(=O)CCCc2ccc(N(CCCl)CCCl)cc2)CC[C@H]2[C@@H]3C[C@H](C)C4=CC(=O)CC[C@]4(C)[C@H]3CC[C@@]21C` [3:16, 17α-[4-(4-(N,N-bis(2-chloroethyl)amino)phenyl)butanoyloxyacetoxy]-6α-methylpregn-4-ene-3,20-dione], the antitumour activity result in series [1] and in series [3] was “exhibit antitumour activity” in each case.
As for `CC(=O)[C@@]1(OC(=O)CCCNC(=O)Cc2ccc(N(CCCl)CCCl)cc2)CC[C@H]2[C@@H]3CCC4=CC(=O)CC[C@]4(C)[C@H]3CC[C@@]21C` [6:1, 17α-/4-(4-(N,N-bis(2-chloroethyl)amino)phenylacetylamino)butanoyloxy/pregn-4-ene-3,20-dione], the antitumour activity result in series [1] and in series [3] was “exhibit antitumour activity” each time.
Take `CC(=O)[C@@]1(OC(=O)CCCOC(=O)c2ccc(C)c(N(CCCl)CCCl)c2)CC[C@H]2[C@@H]3CCC4=CC(=O)CC[C@]4(C)[C@H]3CC[C@@]21C` [7:4, 17α-/4-(3-(N,N-bis(2-chloroethyl)amino)-4-methylbenzoyloxy)butanoyloxy/pregn-4-ene-3,20-dione]: in series [6], the “relative binding affinity (RBA)” value was determined as 0.9%. Also, the antitumour activity result in series [1] and in series [3] was “exhibit antitumour activity” each time. Also, in series [4], the median lethal dose (LD50) was over 250 mg/kg. Further, the selectivity ratio in series [4] is over 15. Besides, in series [5], the ED50 is 16.
